{
  "source": "patent US7417156B2",
  "about": "“Orally active, antimalarial, anticancer, artemisinin-derived trioxane dimers” (Johns Hopkins University, priority 2002, dated 2008)",
  "key": {"[1]": {"test_system": "chloroquine-sensitive P. falciparum (NF54)", "experiment": "Antimalarial activity in vitro, [3H]hypoxanthine incorporation", "type": "cell-based", "conditions": "Table I; NF54 strain; read-out: IC50"}, "[2]": {"test_system": "CCRF-CEM", "experiment": "NCI 60 cell line panel screen (SRB)", "type": "cell-based, human"}, "[3]": {"test_system": "HL-60(TB)", "experiment": "NCI 60 cell line panel screen (SRB)", "type": "cell-based, human"}, "[4]": {"test_system": "MOLT-4", "protocol": "Growth Inhibition. […] The screening assay is performed on 96-well microtitre plates. Relatively high initial inoculation densities are used, in order to permit measurement of “time-zero” values and to enhance the screen's ability to detect and provide some differentiation between growth inhibition and cytotoxic response parameters. […] The inoculated microtitre plates are pre-incubated for 24 hours at 37° C. prior to drug additions. The five drug dilutions tested routinely range from 10^−4 to 10^−8 molar. Higher or lower concentration ranges may be selected on a non-routine basis if appropriate solubility and/or prior biological information or other screening data so dictate. Duplicate wells are prepared for all concentrations, (concentration is often denoted by placing brackets around a number); “time-zero” and “no drug” controls are also provided for each test. The minimum amount of compound required for a one-time evaluation in the routine screen can be calculated from the knowledge that each test requires a total of approximately 40 ml (0.04 liter) of cell culture medium containing the highest desired drug concentration. […] After a 48 hour incubation (37° C.) with the test compound, the cells are fixed in situ to the bottoms of the microtitre wells by addition of 50 μl of either 50% trichloroacetic acid (for adherent cell lines) or 80% trichloroacetic acid (for settled cell suspension lines), followed by incubation for 60 minutes at 4° C. The cellular protein in each well is assayed using a sulforhodamine B (SRB) stain procedure. Briefly, after discarding the supernatants, the microtitre plates are washed 5 times with deionized water and air-dried. […] Unbound SRB is removed by washing 5 times with 1% acetic acid. […] SRB is a bright pink anionic dye which, in dilute acetic acid, binds electrostatically to the basic amino acids of TCA-fixed cells. Cryopreserved master stocks of all the lines are maintained, and cultures used for screening are replaced from the master stock after no more than twenty passages in the screening laboratory. The cell line panel consists of 60 lines, organized into nine, disease-related subpanels including leukemia, non-small-cell lung cancer, colon, CNS, melanoma, ovarian, renal, prostate and breast cancers.\nAt this value the increase from time tzero, in the number or mass of cells in the test well is only 50% as much as the corresponding increase in the control well during this period of the experiment, see Table III. A drug effect of this intensity is interpreted as primary growth inhibition.\nAt this value the number or mass of cells in the well at the end of the experiment equals the number or mass of cells in the well at time tzero, see Table IV. A drug effect of this intensity is regarded as cytostasis.\nAt this value, the number or mass of cells in the test well at the end of the experiment is half that at time tzero, see Table V. This is interpreted as cytotoxicity.\nDose response curves, shown in the above mentioned Figures, are obtained by exposing various cancer cell lines to compounds having a known concentration ([log10M]), as discussed in detail above, and then plotting the percentage growth of each cell line for each concentration. […] Percentage growth is determined by dividing the number or mass of cells in the test well by the number or mass of cells in a control well. […] As discussed previously, the five drug dilutions routinely tested range from 10^−4 to […]."}, "[5]": {"test_system": "EKVX", "experiment": "NCI 60 cell line panel screen (SRB)", "type": "cell-based, human"}, "[6]": {"test_system": "NCI-H460", "experiment": "NCI 60 cell line panel screen (SRB)", "type": "cell-based, human"}, "[7]": {"test_system": "NCI-H522", "experiment": "NCI 60 cell line panel screen (SRB)", "type": "cell-based, human"}, "[8]": {"test_system": "COLO 205", "experiment": "NCI 60 cell line panel screen (SRB)", "type": "cell-based, human"}, "[9]": {"test_system": "HCT-15", "experiment": "NCI 60 cell line panel screen (SRB)", "type": "cell-based, human"}, "[10]": {"test_system": "SNB-19", "experiment": "NCI 60 cell line panel screen (SRB)", "type": "cell-based, human"}, "[11]": {"test_system": "SK-MEL-2", "experiment": "NCI 60 cell line panel screen (SRB)", "type": "cell-based, human"}, "[12]": {"test_system": "UACC-257", "experiment": "NCI 60 cell line panel screen (SRB)", "type": "cell-based, human"}, "[13]": {"test_system": "OVCAR-5", "experiment": "NCI 60 cell line panel screen (SRB)", "type": "cell-based, human"}, "[14]": {"test_system": "786-0", "experiment": "NCI 60 cell line panel screen (SRB)", "type": "cell-based, human"}, "[15]": {"test_system": "CAKI-1", "experiment": "NCI 60 cell line panel screen (SRB)", "type": "cell-based, human"}, "[16]": {"test_system": "MCF7", "experiment": "NCI 60 cell line panel screen (SRB)", "type": "cell-based, human"}, "[17]": {"test_system": "HS 578T", "experiment": "NCI 60 cell line panel screen (SRB)", "type": "cell-based, human"}},
  "data": [
    {"smiles": "CC1CCC2C(C)C(CC(COC(=O)CCC(=O)O)CC3OC4OC5(C)CCC6C(C)CCC(C3C)C46OO5)OC3OC4(C)CCC1C32OO4", "note": "(centres unmarked) [Compound 8a, bis-trioxane primary succinate monoester]", "values": [
      {"measurement": "IC50", "setting": "[1]", "value": 2, "unit": "nM"},
      {"measurement": "Log10LC50", "setting": "[2]; CCRF-CEM (Leukemia), LC50: PG=−50", "value": ">−4.30", "unit": "log10M"},
      {"measurement": "Log10TGI50", "setting": "[2]; CCRF-CEM (Leukemia), TGI: PG=0", "value": ">−4.30", "unit": "log10M"},
      {"measurement": "Log10GI50", "setting": "[2]; Leukemia, CCRF-CEM", "value": "<−8.30"},
      {"measurement": "Log10LC50", "setting": "[3]; HL-60(TB) (Leukemia), LC50: PG=−50", "value": ">−4.30", "unit": "log10M"},
      {"measurement": "Log10TGI50", "setting": "[3]; HL-60(TB) (Leukemia), TGI: PG=0", "value": "−7.61", "unit": "log10M"},
      {"measurement": "Log10GI50", "setting": "[3]; Leukemia, HL-60(TB)", "value": "<−8.30"},
      {"measurement": "concentration for cytotoxicity (percentage growth −50)", "setting": "[4]", "value": "greater than 10^−4 M"},
      {"measurement": "Log10GI50", "setting": "[4]; Leukemia, MOLT-4", "value": "−8.18"},
      {"measurement": "Log10LC50", "setting": "[4]; MOLT-4 (Leukemia), LC50: PG=−50", "value": ">−4.30", "unit": "log10M"},
      {"measurement": "Log10TGI50", "setting": "[4]; MOLT-4 (Leukemia), TGI: PG=0", "value": ">−4.30", "unit": "log10M"},
      {"measurement": "Log10LC50", "setting": "[5]; EKVX (Non-Small Cell Lung Cancer), LC50: PG=−50", "value": ">−4.30", "unit": "log10M"},
      {"measurement": "Log10TGI50", "setting": "[5]; EKVX (Non-Small Cell Lung Cancer), TGI: PG=0", "value": "−5.47", "unit": "log10M"},
      {"measurement": "Log10GI50", "setting": "[5]; Non-Small Cell Lung Cancer, EKVX", "value": "−6.90"},
      {"measurement": "Log10LC50", "setting": "[6]; NCI-H460 (Non-Small Cell Lung Cancer), LC50: PG=−50", "value": ">−4.30", "unit": "log10M"},
      {"measurement": "Log10TGI50", "setting": "[6]; NCI-H460 (Non-Small Cell Lung Cancer), TGI: PG=0", "value": ">−4.30", "unit": "log10M"},
      {"measurement": "Log10GI50", "setting": "[6]; Non-Small Cell Lung Cancer, NCI-H460", "value": "<−8.30"},
      {"measurement": "Log10TGI50", "setting": "[7]; NCI-H522 (Non-Small Cell Lung Cancer), TGI: PG=0", "value": ">−4.30", "unit": "log10M"},
      {"measurement": "Log10LC50", "setting": "[7]; NCI-H-522 (Non-Small Cell Lung Cancer), LC50: PG=−50", "value": ">−4.30", "unit": "log10M"},
      {"measurement": "Log10GI50", "setting": "[7]; Non-Small Cell Lung Cancer, NCI-H522", "value": "−6.16"},
      {"measurement": "Log10LC50", "setting": "[8]; COLO 205 (Colon Cancer), LC50: PG=−50", "value": 4.78, "unit": "log10M"},
      {"measurement": "Log10TGI50", "setting": "[8]; COLO 205 (Colon Cancer), TGI: PG=0", "value": "−6.29", "unit": "log10M"},
      {"measurement": "Log10GI50", "setting": "[8]; Colon Cancer, COLO 205", "value": "<−8.30"},
      {"measurement": "Log10GI50", "setting": "[9]; Colon Cancer, HCT-15", "value": "<−8.30"},
      {"measurement": "Log10LC50", "setting": "[9]; HCT-15 (Colon Cancer), LC50: PG=−50", "value": ">−4.30", "unit": "log10M"},
      {"measurement": "Log10TGI50", "setting": "[9]; HCT-15 (Colon Cancer), TGI: PG=0", "value": "−5.61", "unit": "log10M"},
      {"measurement": "Log10GI50", "setting": "[10]; CNS Cancer, SNB-19", "value": "−5.62"},
      {"measurement": "Log10LC50", "setting": "[10]; SNB-19 (CNS Cancer), LC50: PG=−50", "value": ">−4.30", "unit": "log10M"},
      {"measurement": "Log10TGI50", "setting": "[10]; SNB-19 (CNS Cancer), TGI: PG=0", "value": ">−4.30", "unit": "log10M"},
      {"measurement": "Log10GI50", "setting": "[11]; Melanoma, SK-MEL-2", "value": "−5.12"},
      {"measurement": "Log10LC50", "setting": "[11]; SK-MEL2 (Melanoma), LC50: PG=−50", "value": ">−4.30", "unit": "log10M"},
      {"measurement": "Log10TGI50", "setting": "[11]; SK-MEL-2 (Melanoma), TGI: PG=0", "value": ">−4.30", "unit": "log10M"},
      {"measurement": "Log10GI50", "setting": "[12]; Melanoma, UACC-257", "value": "−5.02"},
      {"measurement": "Log10LC50", "setting": "[12]; UACC-257 (Melanoma), LC50: PG=−50", "value": ">−4.30", "unit": "log10M"},
      {"measurement": "Log10TGI50", "setting": "[12]; UACC-257 (Melanoma), TGI: PG=0", "value": ">−4.30", "unit": "log10M"},
      {"measurement": "Log10LC50", "setting": "[13]; OVCAR-5 (Ovarian Cancer), LC50: PG=−50", "value": ">−4.30", "unit": "log10M"},
      {"measurement": "Log10TGI50", "setting": "[13]; OVCAR-5 (Ovarian Cancer), TGI: PG=0", "value": "−6.62", "unit": "log10M"},
      {"measurement": "Log10GI50", "setting": "[13]; Ovarian Cancer, OVCAR-5", "value": "<−8.30"},
      {"measurement": "Log10LC50", "setting": "[14]; 786-0 (Renal Cancer), LC50: PG=−50", "value": ">−4.30", "unit": "log10M"},
      {"measurement": "Log10TGI50", "setting": "[14]; 786-0 (Renal Cancer), TGI: PG=0", "value": ">−4.30", "unit": "log10M"},
      {"measurement": "Log10GI50", "setting": "[14]; Renal Cancer, 786-0", "value": "−6.45"},
      {"measurement": "Log10LC50", "setting": "[15]; CAKI-1 (Renal Cancer), LC50: PG=−50", "value": ">−4.30", "unit": "log10M"},
      {"measurement": "Log10TGI50", "setting": "[15]; CAKI-1 (Renal Cancer), TGI: PG=0", "value": ">−5.99", "unit": "log10M"},
      {"measurement": "Log10GI50", "setting": "[15]; Renal Cancer, CAKI-1", "value": "−6.84"},
      {"measurement": "Log10GI50", "setting": "[16]; Breast Cancer, MCF7", "value": "<−8.30"},
      {"measurement": "Log10LC50", "setting": "[16]; MCF7 (Breast Cancer), LC50: PG=−50", "value": ">−4.30", "unit": "log10M"},
      {"measurement": "Log10TGI50", "setting": "[16]; MCF7 (Breast Cancer), TGI: PG=0", "value": ">−4.30", "unit": "log10M"},
      {"measurement": "Log10GI50", "setting": "[17]; Breast Cancer, HS 578T", "value": ">−4.30"},
      {"measurement": "Log10LC50", "setting": "[17]; HS 578T (Breast Cancer), LC50: PG=−50", "value": ">−4.30", "unit": "log10M"},
      {"measurement": "Log10TGI50", "setting": "[17]; HS 578T (Breast Cancer), TGI: PG=0", "value": ">−4.30", "unit": "log10M"}
    ]}
  ]
}
